One assay concerns mice. Nature of the assay: In vivo delivery of Luciferase mRNA, intravenous administration, bioluminescence imaging. The conditions noted are these: 5 μg Luc mRNA; for mRNA / luciferase expression and tissues: single dose. As for the experimental part: FIGS. 4A-4D show the potency of ADGN-peptide variants for in vivo delivery of Luciferase mRNA via intravenous administration in mice. ADGN-peptide/luc mRNA particles containing 5 μg mRNA were formed in sterile water, and then diluted in 5% sucrose. Mice received IV injection of 100 μl ADGN-peptide/mRNA complexes. mRNA LUC expression was monitored by bioluminescence imaging after 12 h, 24 h, 48 h and 72 h. FIG. 4B show bioluminescence imaging at 24 hr in control and treated groups. Semi-quantitative data of luciferase signal in the liver (C) and in the lung (D) were obtained using the manufacturer's software (Living Image; PerkinElmer). Results were then expressed as values relative to day 0.
Stable ADGN-peptides/mRNA were evaluated for in vivo delivery of Luciferase mRNA via intravenous and intramuscular administrations. Animals were treated with single dose of 5 moU modified Luc mRNA of 5 μg. 5 moU modified Luc mRNA (5 μg) in sterile water (GIBCO) were mixed with ADGN peptide (sterile water), volume for each sample was adjusted to 100 μl, with sterile water containing 5% Sucrose. Samples were mixed gently with vortex for 1 minute at low speed and incubated for 30 min at room temperature. Samples were filtered on 0.45 μm PES filters prior administration. For IV administration Mice received 100 μl intravenous (IV) injection of either ADGN-106/mRNA, ADGN-100/mRNA, ADGN-106RI/mRNA, ADGN-100-stearyl/mRNA, ADGN-100Hydro1/mRNA, ADGN-100Hydro2 or ADGN/mRNA complexes containing 10% of ADGN-100PEG (3 animals per group). As control, mice from group 3 (2 animals per group) received IV injection of 100 μl of naked 5 moU modified Luc mRNA (5 μg). For IM administration, mice received 25 μl (5 μg mRNA) IV injection of either ADGN-100/mRNA, ADGN-106/mRNA, ADGN-106RI/mRNA or ADGN/mRNA complexes containing 10% or 20% of ADGN-100PEG (2 animals per group). As control, mice from group 3 (2 animals per group) received IV injection of 25 μl of naked 5 moU modified Luc mRNA (5 μg).
mRNA Luc expression was monitored by bioluminescence. Bioluminescence imaging was performed after 12, 24, 48 and 72 hrs. Mice received an i.p. injection of 150 μg/g luciferin for noninvasive bioluminescence imaging (IVIS Kinetic; PerkinElmer, Waltham, MA, USA).

A further assay deals with A375/Luc cells. Kind of assay: Cellular delivery of siRNA targeting Luciferase, luciferase silencing at 48 hrs. It counts as cell-based. The conditions noted are these: for reduction of ADGN-100 or ADGN-106 efficiency by modification / reduction of level of luciferase (siRNA mediated silencing): absence of serum treatment; for reduction of efficiency / siRNA mediated luciferase silencing in the presence of serum: complexes incubated 3 hrs in 25% serum; for reduction of luciferase expression level: presence of serum. As for the experimental part: FIGS. 3A-3C show luciferase expression in A375/Luc cells treated with ADGN-peptide/siRNA complexes. A375/Luc cells cultured in 48 well plates were transfected with ADGN-peptide nanoparticles. ADGN-100, ADGN-106, ADGN-100RI, ADGN-106RI, ADGN-100 Stearyl, ADGN-Hydro1, ADGN-Hydro2, ADGN-Hydro3, ADGN-Hydro4, ADGN-Hydro5, ADGN-Hydro6 and ADGN-peptide/ADGN-100PEG 10% nanoparticles containing 10 nM or 25 nM siRNA were formed in sterile water, diluted in sterile water containing 5% Sucrose and filtered with 0.45 μm PES filters. FIG. 3C impact of peGylated ADGN-100 on the transfection efficiency. siRNA Luc (10 nM and 25 nM) were associated to ADGN-100 solution containing 5 to 50% of ADGN-100-PEG or to ADGN-100PEG. ADGN/siRNA complexes were incubated for 3 hrs in the presence of 25% serum prior transfection. Luciferase expression was monitored 48 hours post transfection and results were reported as RLU (luminescence):mg of protein.
Complex formation with siRNA. The following protocols were used for the transfection of 2-5 106 Cells or Cells at confluency of about 70-80% cultured in 24 well plates. ADGN peptide/siRNA Luc particles were prepared at a 20:1 molar ratio of ADGN-Peptide/pGL4. using 20 nM siRNA. The siRNA duplex (10 and 25 nM) was diluted in 20 μl of sterile water (GIBCO) at room temperature. 1.5 or 3 μl of a Final Peptide Solution (55 μM) was added to obtain a total volume of 20 μl. The volume was adjusted to 50 μl with sterile water and was mixed gently with vortex 1 min low speed and incubated 30 min at room temperature. Then the volume was made up to 100 μl by adding sterile water containing 5% sucrose, and the solution was mixed gently with vortex 1 min low speed and incubate 5 min at 37° C. and then was proceeded to cell transfection.
Transfection protocol. Protocol is reported for 24 well plate format. Cells were cultured in Dulbecco's Modified Eagle's Medium (DMEM), supplemented with 2 mM glutamine, 1% antibiotics (streptomycin 10,000 μg/mL, penicillin, 10,000 IU/mL) and 10% (w/v) foetal calf serum (FCS), at 37° C. in a humidified atmosphere containing 5% CO2. 24 well plates seeded with 150,000 cells the day prior to transfection were grown to 50-60% confluence and set up to be at about 70% confluences at the time of transfection. Before transfection, cells were washed twice with DMEM. Cells were then overlaid with 0.1 ml of ADGN-peptide/cargo complex solution containing 0.25 μg mRNA, 0.15 μg plasmid DNA or 10-25 nM siRNA, mixed gently, and incubated for 10 min at 37° C. 0.2 mL of fresh DMEM, were added and cells were incubated for 20 min at 37° C. 1 mL of complete DMEM containing 15% FCS were then added in order to reach a final FCS concentration of 10%, without removing the overlay of ADGN-peptide/cargo complexes. Cells were returned to the incubator (37° C., 5% CO2) and 72 hrs post transfection.
ADGN-peptides were evaluated for cellular delivery of siRNA duplex targeting Luciferase in A375/Luc cells. siRNA targeting luciferase (10 and 25 nM) in sterile water (GIBCO) were mixed with ADGN-100, ADGN-100RI, ADGN-106, ADGN-106RI, ADGN-100 Stearyl, ADGN-100Hydro1, ADGN-100Hydro2, ADGN-100Hydro4, ADGN-100Hydro3, ADGN-100Hydro5 and ADGN-100Hydro6. ADGN-peptide/siRNA complexes were filtered with 0.45 μm PES filter. In order to evaluate the stability of the ADGN/siRNA complexes in high serum conditions, the complexes were incubated for 3 hrs in the presence of 25% serum, then A375/Luc cells were transfected and Luciferase expression was monitored at 48 hrs.

Data on seven substances can be found in US12357695B2, “Peptides and nanoparticles for intracellular delivery of molecules” (AADIGEN, LLC, priority 2019, dated 2025).

Square brackets hold non-standard residues; d marks the D form. Ends that are not written are not given here. Stearyl = stearyl group covalently linked to the N-terminus; Aun = NCCCCCCCCCCC(=O)O; βAla = NCCC(=O)O

Consider “Ac-GYVS-(G)4-KWRSALWRWRLWRVRSWSR-NH2 (Ac-GYVSGGGGKWRSALWRWRLWRVRSWSR-NH2) [ADGN-100 hydro-2]”, for which, in the assay with mice, the “mRNA / luciferase expression and tissues” value is reported as “negligible luciferase expression”.

With “Ac-GYVS-Aun-KWRSALWRWRLWRVRSWSR-NH2 (Ac-GYVS[Aun]KWRSALWRWRLWRVRSWSR-NH2; SMILES CC(=O)NCC(=O)N[C@@H](Cc1ccc(O)cc1)C(=O)N[C@H](C(=O)N[C@@H](CO)C(=O)NCCCCCCCCCCC(=O)N[C@@H](CCCCN)C(=O)N[C@@H](Cc1c[nH]c2ccccc12)C(=O)N[C@@H](CCCNC(=N)N)C(=O)N[C@@H](CO)C(=O)N[C@@H](C)C(=O)N[C@@H](CC(C)C)C(=O)N[C@@H](Cc1c[nH]c2ccccc12)C(=O)N[C@@H](CCCNC(=N)N)C(=O)N[C@@H](Cc1c[nH]c2ccccc12)C(=O)N[C@@H](CCCNC(=N)N)C(=O)N[C@@H](CC(C)C)C(=O)N[C@@H](Cc1c[nH]c2ccccc12)C(=O)N[C@@H](CCCNC(=N)N)C(=O)N[C@H](C(=O)N[C@@H](CCCNC(=N)N)C(=O)N[C@@H](CO)C(=O)N[C@@H](Cc1c[nH]c2ccccc12)C(=O)N[C@@H](CO)C(=O)N[C@@H](CCCNC(=N)N)C(N)=O)C(C)C)C(C)C) [ADGN-100 hydro-6]”, in the assay with A375/Luc cells, the “reduction of ADGN-100 or ADGN-106 efficiency by modification” value (shortened to “reduction … by modification”) is reported as “do not affected” and the “reduction of efficiency / siRNA mediated luciferase silencing in the presence of serum” value came to 20%.

For the substance “Stearyl-βA-KWRSALWRWRLWRVRSWSR-NH2 (Stearyl-[βAla]KWRSALWRWRLWRVRSWSR-NH2; not fully specified; printed as Stearyl-βA-KWRSALWRWRLWRVRSWSR-NH2) [ADGN-100 Stearyl]”, in the assay with A375/Luc cells, the “reduction … by modification” value is “do not affected” and the “reduction of efficiency / siRNA mediated luciferase silencing in the presence of serum” value is on record as 20%. In addition, in the assay on mice, the “mRNA / luciferase expression and tissues” value was “mainly observed in the liver and at lower level in the lung and the kidney”.

For the substance “akwllrwlsrwlrwlarwlr ([dA][dK][dW][dL][dL][dR][dW][dL][dS][dR][dW][dL][dR][dW][dL][dA][dR][dW][dL][dR]; also: retro-inverso) [ADGN-106-RI]”, in the assay on A375/Luc cells (10 nM siRNA), the “reduction of luciferase expression level” value is 77%. Besides, the “reduction of luciferase expression level” value with A375/Luc cells (25 nM siRNA) is given as 95%. In the assay on A375/Luc cells, the “reduction … by modification” value is on record as “do not affected” and the “reduction of efficiency / siRNA mediated luciferase silencing in the presence of serum” value is “not affected by the presence of serum”. The “increase of luciferase expression / efficiency relative to ADGN-106” value with mice (all / different tissues) stood at 2 fold. Besides, in the assay with mice, the “mRNA / luciferase expression and tissues” value is “mainly observed in the liver and at lower level in the lung and the kidney”.

As to “rswsrvrwlrwrwgasrwk ([dR][dS][dW][dS][dR][dV][dR][dW][dL][dR][dW][dR][dW]G[dA][dS][dR][dW][dK]; also: retro-inverso) [ADGN-100-RI]”, in the assay with A375/Luc cells (10 nM siRNA), the “reduction of luciferase expression level” value is 77%. Besides, the “reduction of luciferase expression level” value in the assay on A375/Luc cells (25 nM siRNA) was 95%. Moreover, in the assay on A375/Luc cells, the “reduction … by modification” value is “do not affected” and the “reduction of efficiency / siRNA mediated luciferase silencing in the presence of serum” value is “not affected by the presence of serum”.

With “βAKWRSAGWRWRLW RVRSWSR (AKWRSAGWRWRLWRVRSWSR; N-terminal beta-alanine; VARIANT 1 beta-A) [ADGN-100]”, the “reduction of level of luciferase (siRNA mediated silencing)” value (“reduction of level of luciferase” for short) turned out to be 78% with A375/Luc cells (10 nM siRNA) and 93% in the assay with A375/Luc cells (25 nM siRNA). For the same substance, the “reduction of efficiency / siRNA mediated luciferase silencing in the presence of serum” value in the assay on A375/Luc cells was 90%. For the same substance, in the assay with mice, the “mRNA / luciferase expression and tissues” value is “mainly observed in the liver and at lower level in the lung and the kidney”.

Consider “βALWRALWRLWRSLWRLLWKA ([βAla]LWRALWRLWRSLWRLLWKA) [ADGN-106]”, for which the “reduction of level of luciferase” value with A375/Luc cells (10 nM siRNA) turned out to be 78%. Moreover, the “reduction of level of luciferase” value in the assay on A375/Luc cells (25 nM siRNA) turned out to be 93%. Also, the “reduction of efficiency / siRNA mediated luciferase silencing in the presence of serum” value in the assay on A375/Luc cells worked out at 90%. Further, in the assay on mice, the “efficiency relative to ADGN-100” value is on record as 4 folds; the “efficiency relative to ADGN-100 stearyl” value worked out at 2 folds; the “mRNA / luciferase expression and tissues” value was “mainly observed in the liver and at lower level in the lung and the kidney”.
